Measurements as given in patent US9302999B2, “Substituted triazoles as herbicides” (E. I. DU PONT DE NEMOURS AND COMPANY, priority 2012, dated 2016).
Read-outs that look alike come from different tables or passages of the source.

Key:
Assay type in all cases: in vivo
[1] = tested on: barnyardgrass (Echinochloa crus-galli); experiment: Test A pre-/postemergence: barnyardgrass; details: for pest or weed control at 125 g/ha / pest or weed control at 500 g/ha: Echinochloa crus-galli, 240 h
In short: (§1)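 Seeds were sown in loam/sand blend and sprayed preemergence (directed soil spray) and, simultaneously, postemergence at 2–10 cm, one- to two-leaf stage, using compounds in non-phytotoxic solvent with surfactant. After ~10 days in greenhouse, injury was rated visually versus untreated controls, 0 (no effect) to 100 (complete control).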

[2] = tested on: morningglory (Ipomoea spp.); experiment: Test A pre-/postemergence: morningglory; details: for pest or weed control at 125 g/ha / pest or weed control at 500 g/ha: Ipomoea, 240 h
In short: as §1

[3] = tested on: corn (Zea mays); experiment: Test A pre-/postemergence: corn
In short: as §1

[4] = tested on: ryegrass, Italian (Italian ryegrass, Lolium multiflorum); experiment: Test C pre-/postemergence: ryegrass, Italian
In short: (§2)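 Preemergence on seeds in loam/sand, postemergence on 2–18 cm (1–4-leaf) plants in peat-based medium; compounds in non-phytotoxic solvent with surfactant. After 13–15 days in greenhouse, visual rating versus controls, 0 (no effect) to 100 (complete control).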

[5] = tested on: winter wheat (Triticum aestivum); experiment: Test C pre-/postemergence: winter wheat
In short: as §2

[6] = tested on: galium (catchweed bedstraw, Galium aparine); experiment: Test C pre-/postemergence: galium
In short: as §2

[7] = tested on: large crabgrass (Digitaria sanguinalis); experiment: Test C pre-/postemergence: large crabgrass
In short: as §2

[8] = tested on: johnsongrass (Sorghum halepense); experiment: Test C pre-/postemergence: johnsongrass
In short: as §2

[9] = tested on: kochia (Kochia scoparia); experiment: Test C pre-/postemergence: kochia; details: Postemergence
In short: as §2

[10] = tested on: nutsedge, yellow (yellow nutsedge, Cyperus esculentus); experiment: Test C pre-/postemergence: nutsedge, yellow
In short: as §2

[11] = tested on: pigweed (Amaranthus retroflexus); experiment: Test C pre-/postemergence: pigweed
In short: as §2

[12] = Postemergence, 125 g ai/ha, 0 to 100 scale, 0 is no effect, 100 is complete control
[13] = Postemergence, 500 g ai/ha, visual rating on 0 to 100 scale (0 no effect, 100 complete control), approximately ten days
[14] = Preemergence, 125 g ai/ha, 0 to 100 scale where 0 is no effect and 100 is complete control
[15] = Preemergence, 500 g ai/ha, 0 to 100 scale (0 no effect, 100 complete control)
[16] = Postemergence, 16 g ai/ha, scale 0 to 100, 0 no effect, 100 complete control
[17] = Postemergence, 31 g ai/ha, scale 0 to 100 (0 no effect, 100 complete control)
[18] = Postemergence, 62 g ai/ha, scale 0 to 100 (0 no effect, 100 complete control)
[19] = Postemergence, 125 g ai/ha, scale 0 to 100, 0 no effect, 100 complete control
[20] = Preemergence, 16 g ai/ha, scale 0 (no effect) to 100 (complete control)
[21] = Preemergence, 31 g ai/ha, scale of 0 to 100, 0 is no effect, 100 is complete control
[22] = Preemergence, 62 g ai/ha, scale of 0 to 100, 0 is no effect, 100 is complete control
[23] = Preemergence, 125 g ai/ha, scale 0 to 100, 0 no effect, 100 complete control
[24] = 31 g ai/ha, scale 0 to 100 (0 no effect, 100 complete control)
[25] = 62 g ai/ha, scale 0 to 100 (0 no effect, 100 complete control)
[26] = 125 g ai/ha, scale 0 to 100, 0 no effect, 100 complete control
[27] = Postemergence, 250 g ai/ha, scale 0 to 100
[28] = Preemergence, 31 g ai/ha, scale 0 (no effect) to 100 (complete control)
[29] = Preemergence, 250 g ai/ha, scale 0 to 100, 0 no effect, 100 complete control

FCc1nn(-c2ccc(F)cc2)nc1Oc1ccnc(C(F)(F)F)c1 [Compound 160]
Plant response rating, Barnyardgrass [1, 12]: 70
Barnyardgrass plant response rating [1, 13]: 90
Plant response rating, Barnyardgrass [1, 14]: 100
Plant response rating, Barnyardgrass [1, 15]: 100
Plant response rating, Morningglory [2, 12]: 90
Morningglory plant response rating [2, 13]: 90
Plant response rating, Morningglory [2, 14]: 40
Plant response rating, Morningglory [2, 15]: 70
Plant response rating, Corn [3, 12]: 30
Corn plant response rating [3, 13]: 60
Plant response rating, Corn [3, 14]: 20
Plant response rating, Corn [3, 15]: 40
Plant response rating, Ryegrass, Italian [4, 16]: 10
Plant response rating, Ryegrass, Italian [4, 17]: 30
Plant response rating, Ryegrass, Italian [4, 18]: 30
Plant response rating, Ryegrass, Italian [4, 19]: 45
Plant response rating, Ryegrass, Italian [4, 20]: 5
Plant response rating, Ryegrass, Italian [4, 21]: 15
Plant response rating, Ryegrass, Italian [4, 22]: 80
Plant response rating, Ryegrass, Italian [4, 23]: 90
Plant response rating, Wheat [5, 16]: 5
Plant response rating, Wheat [5, 17]: 5
Plant response rating, Wheat [5, 18]: 25
Plant response rating, Wheat [5, 19]: 25
Plant response rating, Wheat [5, 20]: 0
Plant response rating, Wheat [5, 22]: 15
Plant response rating, Wheat [5, 23]: 40
Plant response rating, Galium [6, 16]: 55
Plant response rating, Galium [6, 17]: 80
Plant response rating, Galium [6, 18]: 85
Plant response rating, Galium [6, 19]: 95
Plant response rating, Galium [6, 21]: 5
Plant response rating, Galium [6, 22]: 100
Plant response rating, Galium [6, 23]: 100
Plant response rating, Crabgrass, Large [7, 16]: 20
Plant response rating, Crabgrass, Large [7, 17]: 25
Plant response rating, Crabgrass, Large [7, 18]: 35
Plant response rating, Crabgrass, Large [7, 19]: 40
Plant response rating, Crabgrass, Large [7, 20]: 90
Plant response rating, Crabgrass, Large [7, 21]: 100
Plant response rating, Crabgrass, Large [7, 22]: 100
Plant response rating, Crabgrass, Large [7, 23]: 100
Plant response rating, Johnsongrass [8, 16]: 10
Plant response rating, Johnsongrass [8, 17]: 15
Plant response rating, Johnsongrass [8, 19]: 30
Plant response rating, Johnsongrass [8, 20]: 85
Plant response rating, Johnsongrass [8, 21]: 100
Plant response rating, Johnsongrass [8, 22]: 100
Plant response rating, Johnsongrass [8, 23]: 100
Plant response rating, Kochia ([9]; 16 g ai/ha, scale 0 to 100, 0 no effect, 100 complete control): 90
Plant response rating, Kochia [9, 24]: 90
Plant response rating, Kochia [9, 25]: 95
Plant response rating, Kochia [9, 26]: 95
Plant response rating, Nutsedge, Yellow [10, 16]: 5
Plant response rating, Nutsedge, Yellow [10, 17]: 10
Plant response rating, Nutsedge, Yellow [10, 18]: 10
Plant response rating, Nutsedge, Yellow [10, 19]: 15
Plant response rating, Nutsedge, Yellow [10, 20]: 0
Plant response rating, Nutsedge, Yellow [10, 21]: 0
Plant response rating, Nutsedge, Yellow [10, 22]: 0
Plant response rating, Nutsedge, Yellow [10, 23]: 0
Plant response rating, Pigweed [11, 16]: 95
Plant response rating, Pigweed [11, 17]: 95
Plant response rating, Pigweed [11, 18]: 98
Plant response rating, Pigweed [11, 19]: 98
Plant response rating, Pigweed [11, 20]: 90
Plant response rating, Pigweed [11, 21]: 100
Plant response rating, Pigweed [11, 22]: 100
Plant response rating, Pigweed [11, 23]: 100

CCOc1nn(-c2ccc(C(F)(F)F)cc2)nc1Cc1ccnc(C(F)(F)F)c1 [Compound 164, 4-[[5-ethoxy-2-[4-(trifluoromethyl)phenyl]-2H-1,2,3-triazol-4-yl]methyl]-2-(trifluoromethyl)pyridine]
pest or weed control at 125 g/ha ([1]; post-emergence, Postemergence, 125 g ai/ha, 0 to 100 scale, 0 is no effect, 100 is complete control, read-out: Plant response rating, Barnyardgrass): 90%
pest or weed control at 500 g/ha ([1]; post-emergence, Postemergence, 500 g ai/ha, 0 to 100 scale, 0 is no effect, 100 is complete control, read-out: Barnyardgrass plant response rating): 90%
pest or weed control at 125 g/ha ([1]; pre-emergence, Preemergence, 125 g ai/ha, 0 to 100 scale where 0 is no effect and 100 is complete control, read-out: Plant response rating, Barnyardgrass): 90%
pest or weed control at 500 g/ha ([1]; pre-emergence, Preemergence, 500 g ai/ha, 0 to 100 scale (0 no effect, 100 complete control), read-out: Plant response rating, Barnyardgrass): 100%
pest or weed control at 125 g/ha ([2]; post-emergence, Postemergence, 125 g ai/ha, 0 to 100 scale, 0 is no effect, 100 is complete control, read-out: Plant response rating, Morningglory): 100%
pest or weed control at 500 g/ha ([2]; post-emergence, Postemergence, 500 g ai/ha, 0 to 100 scale, 0 is no effect, 100 is complete control, read-out: Morningglory plant response rating): 100%
pest or weed control at 125 g/ha ([2]; pre-emergence, Preemergence, 125 g ai/ha, 0 to 100 scale where 0 is no effect and 100 is complete control, read-out: Plant response rating, Morningglory): 80%
pest or weed control at 500 g/ha ([2]; pre-emergence, Preemergence, 500 g ai/ha, 0 to 100 scale (0 no effect, 100 complete control), read-out: Plant response rating, Morningglory): 90%
Corn plant response rating (crop injury, 0 = no effect, 100 = complete kill) at 125 g/ha ([3]; Zea mays, post-emergence, 240 h, Postemergence, 125 g ai/ha, 0 to 100 scale, 0 is no effect, 100 is complete control): 30%
plant injury at 500 g/ha ([3]; Zea mays, post-emergence, 240 h, Postemergence, 500 g ai/ha, 0 to 100 scale, 0 is no effect, 100 is complete control, read-out: Corn plant response rating): 40%
Corn plant response rating (crop injury, 0 = no effect, 100 = complete kill) at 125 g/ha ([3]; Zea mays, pre-emergence, 240 h, Preemergence, 125 g ai/ha, 0 to 100 scale where 0 is no effect and 100 is complete control): 30%
Corn plant response rating (crop injury, 0 = no effect, 100 = complete kill) at 500 g/ha ([3]; Zea mays, pre-emergence, 240 h, Preemergence, 500 g ai/ha, 0 to 100 scale (0 no effect, 100 complete control)): 30%
Plant response rating, Ryegrass, Italian [4, 17]: 5
Plant response rating, Ryegrass, Italian [4, 18]: 5
Plant response rating, Ryegrass, Italian [4, 19]: 5
Plant response rating, Ryegrass, Italian [4, 27]: 5
Plant response rating, Ryegrass, Italian [4, 28]: 5
Plant response rating, Ryegrass, Italian [4, 22]: 10
Plant response rating, Ryegrass, Italian [4, 23]: 55
Plant response rating, Ryegrass, Italian [4, 29]: 75
Plant response rating, Wheat [5, 17]: 5
Plant response rating, Wheat [5, 18]: 10
Plant response rating, Wheat [5, 19]: 10
Plant response rating, Wheat [5, 27]: 10
Plant response rating, Wheat [5, 28]: 0
Plant response rating, Wheat [5, 22]: 0
Plant response rating, Wheat [5, 23]: 0
Plant response rating, Wheat [5, 29]: 5
Plant response rating, Galium [6, 17]: 30
Plant response rating, Galium [6, 18]: 30
Plant response rating, Galium [6, 19]: 60
Plant response rating, Galium [6, 27]: 60
Plant response rating, Galium [6, 28]: 0
Plant response rating, Galium [6, 22]: 50
Plant response rating, Galium [6, 23]: 80
Plant response rating, Galium [6, 29]: 80
Plant response rating, Crabgrass, Large [7, 17]: 5
Plant response rating, Crabgrass, Large [7, 18]: 5
Plant response rating, Crabgrass, Large [7, 19]: 10
Plant response rating, Crabgrass, Large [7, 27]: 10
Plant response rating, Crabgrass, Large [7, 28]: 70
Plant response rating, Crabgrass, Large [7, 22]: 75
Plant response rating, Crabgrass, Large [7, 23]: 98
Plant response rating, Crabgrass, Large [7, 29]: 100
Plant response rating, Johnsongrass [8, 17]: 10
Plant response rating, Johnsongrass [8, 18]: 10
Plant response rating, Johnsongrass [8, 19]: 10
Plant response rating, Johnsongrass [8, 27]: 10
Plant response rating, Johnsongrass [8, 28]: 5
Plant response rating, Johnsongrass [8, 22]: 15
Plant response rating, Johnsongrass [8, 23]: 20
Plant response rating, Johnsongrass [8, 29]: 40
Plant response rating, Kochia [9, 24]: 40
Plant response rating, Kochia [9, 25]: 40
Plant response rating, Kochia [9, 26]: 40
Plant response rating, Kochia ([9]; 250 g ai/ha, scale 0 to 100): 90
Plant response rating, Nutsedge, Yellow [10, 17]: 0
Plant response rating, Nutsedge, Yellow [10, 18]: 5
Plant response rating, Nutsedge, Yellow [10, 19]: 5
Plant response rating, Nutsedge, Yellow [10, 27]: 10
Plant response rating, Nutsedge, Yellow [10, 28]: 0
Plant response rating, Nutsedge, Yellow [10, 22]: 0
Plant response rating, Nutsedge, Yellow [10, 23]: 0
Plant response rating, Nutsedge, Yellow [10, 29]: 0
Plant response rating, Pigweed [11, 17]: 50
Plant response rating, Pigweed [11, 18]: 75
Plant response rating, Pigweed [11, 19]: 80
Plant response rating, Pigweed [11, 27]: 80
Plant response rating, Pigweed [11, 28]: 10
Plant response rating, Pigweed [11, 22]: 35
Plant response rating, Pigweed [11, 23]: 90
Plant response rating, Pigweed [11, 29]: 100
